{"source": "patent US8152784B2", "about": "“Method for treating or preventing steroid-induced glaucoma” (Wisconsin Alumni Research Foundation, priority 2005, dated 2012)", "key": {"[1]": {"tested_on": "human trabecular meshwork cells", "test": "CLAN formation in cultured human trabecular meshwork cells spread on coated coverslips, immunofluorescence microscopy", "assay_type": "cell-based", "details": "adsorbed substrate on coverslip, cells spread three hours", "procedure": "(§1) Cultured, diploid human trabecular meshwork cells obtained from trabecular meshwork explants were plated on coverslips coated with extracellular matrix materials, including poly-L-lysine (20 nM in PBS), fibronectin (100 nM in PBS), type I collagen (20 nM in PBS), type IV collagen (20 nM in PBS), vitronectin (20 nM in PBS), vascular cell adhesion molecule (VCAM-1, an α4β1 ligand; 20 nM in PBS), fibronectin III7-10 domain (an α5β1 ligand; 20 nM in PBS), fibronectin III12-14 domain (20 nM in PBS), or fibronectin IICS domains (20 nM in PBS), or activating antibodies to β1 (anti-B3B11; Chemicon Int'l, Inc.; Temecula, Calif.; 10 μg/ml), β3 (anti-AP-5; The Blood Center of Southeastern Wisconsin; Milwaukee, Wis.; 8 μg/ml), or α2β1 (anti-JBS2; Chemicon Int'l, Inc.; 6 μg/ml) integrins. In experiments using antibodies as substrates, coverslips were pre-coated with 1:100 unconjugated goat anti-mouse IgG (Jackson Immunoresearch, Inc.; West Grove, Pa.). In some instances, anti-β3 antibodies were used as soluble ligands. […]\nCLAN formation was assessed by immunofluorescence microscopy. […] Anti-F-actin was detected using either Alexa 488 conjugated goat anti-rabbit IgG or Alexa 488 conjugated donkey anti-rabbit IgG. All monoclonal antibodies were detected using Alexa 546 conjugated goat anti-mouse IgG."}, "[2]": {"tested_on": "trabecular meshwork cells", "test": "CLAN formation in trabecular meshwork cells on fibronectin-coated cover slips with Src kinase inhibitor", "assay_type": "cell-based, human", "details": "PP2 20 μM", "procedure": "as §1\nCLAN formation was assessed by immunofluorescence microscopy. […] Anti-F-actin was detected using either Alexa 488 conjugated goat anti-rabbit IgG or Alexa 488 conjugated donkey anti-rabbit IgG. All monoclonal antibodies were detected using Alexa 546 conjugated goat anti-mouse IgG. […]"}}, "data": [{"compound": "fibronectin", "values": [{"measurement": "CLAN formation, % of the cells", "setting": "[1]", "result": 13, "unit": "%"}]}, {"compound": "CC(C)(C)n1nc(-c2ccc(Cl)cc2)c2c(N)ncnc21", "note": "[PP2]", "values": [{"measurement": "CLAN formation, % of cells", "setting": "[2]; absence of soluble anti-β3, control cells 10%", "result": 0, "unit": "%"}, {"measurement": "CLAN formation, % of cells", "setting": "[2]; presence of soluble anti-β3, control cells 30%", "result": 1, "unit": "%"}]}]}
